Data published in patent US11566007B2, “Ras inhibitors” (Revolution Medicines, Inc., priority 2019, dated 2023).
“And” between values parts separate entries of the source, which are not always exact repeats. Equal entries are not always repeated.

How the values were obtained:
[1] = test system: NCI-H358 cells (K-Ras G12C); assay: Potency assay: pERK in NCI-H358 cells; assay type: cell-based, human; conditions: Homo sapiens, NCI-H358; H358 KRAS G12C; read-out: pERK EC50
Procedure, shortened: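 pERK decrease read by AlphaLISA SureFire p-ERK1/2 or In-Cell Western after 4 h compound exposure at 37 °C, 5% CO2.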

NCI-H358 (K-Ras G12C) = assay: CellTiter-Glo cell viability assay, NCI-H358; assay type: cell-based, human; conditions: Homo sapiens, NCI-H358, 120 h, NCI-H358, 5-day treatment; class symbols; read-out: Additional H358 Cell Viability assay data (K-Ras G12C, IC50)
Procedure, shortened: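 Compounds dispensed directly onto seeded K-Ras mutant cells; plates read on day 5 after ~30 min equilibration to room temperature, by CellTiter-Glo luminescence. Signal normalized as (sample/mean DMSO)×100, then fitted to a four-parameter logistic curve.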

K-Ras G12C = K-Ras G12C (Homo sapiens (Human), UniProt P01116+P62937, G12C); assay: Ras-Raf (BRAF RBD) disruption / FRET / MOA assay, KRAS G12C; assay type: biochemical; conditions: KRAS G12C; Ras-Raf disruption/FRET/MOA assay; read-out: IC50* KRAS G12C FRET data
K-Ras G12C, sequence (P01116-2 other isoform, or with tags, fused parts or gaps G12C): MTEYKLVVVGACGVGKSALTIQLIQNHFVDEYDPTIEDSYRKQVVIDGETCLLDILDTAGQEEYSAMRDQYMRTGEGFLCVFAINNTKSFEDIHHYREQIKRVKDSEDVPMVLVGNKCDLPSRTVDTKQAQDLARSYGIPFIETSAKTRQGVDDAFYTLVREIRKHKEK
K-Ras G12C, sequence (P62937 whole entry): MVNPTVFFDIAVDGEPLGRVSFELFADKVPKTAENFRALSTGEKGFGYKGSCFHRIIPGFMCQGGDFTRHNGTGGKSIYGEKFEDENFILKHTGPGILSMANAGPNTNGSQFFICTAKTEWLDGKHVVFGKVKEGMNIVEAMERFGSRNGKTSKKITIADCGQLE
Procedure, shortened: (§1)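 Compounds, top final concentration 30 μM in 10-point 3-fold series, incubated 3 hours at 25° C with nucleotide-loaded Ras, cyclophilin A and BRAF RBD.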

K-Ras G13C = K-Ras G13C (Homo sapiens (Human), UniProt P01116+P62937, G13C); assay: Ras-Raf (BRAF RBD) disruption / FRET / MOA assay, KRAS G13C; assay type: biochemical; conditions: KRAS G13C; Ras-Raf disruption/FRET/MOA assay; read-out: IC50* KRAS G13C FRET data
K-Ras G13C, sequence (P01116-2 other isoform, or with tags, fused parts or gaps G13C): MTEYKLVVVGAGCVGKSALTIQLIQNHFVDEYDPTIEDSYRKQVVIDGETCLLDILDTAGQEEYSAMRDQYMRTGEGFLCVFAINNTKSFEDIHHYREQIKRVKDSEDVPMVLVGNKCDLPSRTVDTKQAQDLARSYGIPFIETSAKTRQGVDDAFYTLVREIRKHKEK
K-Ras G13C, sequence (P62937 whole entry): as the sequence (P62937 whole entry) above
Procedure, shortened: as §1

KRAS G12S = KRAS G12S (Homo sapiens (Human), UniProt P01116+P62937, G12S); assay: Ras-Raf (BRAF RBD) disruption / FRET / MOA assay, KRAS G12S; assay type: biochemical; conditions: Ras-Raf disruption/FRET/MOA assay; class symbols; read-out: KRAS G12S FRET data IC50
KRAS G12S, sequence (P01116-2 other isoform, or with tags, fused parts or gaps G12S): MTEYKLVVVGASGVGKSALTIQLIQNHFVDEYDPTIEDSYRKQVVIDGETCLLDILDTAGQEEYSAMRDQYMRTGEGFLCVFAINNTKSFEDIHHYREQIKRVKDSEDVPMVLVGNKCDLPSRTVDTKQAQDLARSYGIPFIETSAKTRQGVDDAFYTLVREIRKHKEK
KRAS G12S, sequence (P62937 whole entry): as the sequence (P62937 whole entry) above
Procedure, shortened: as §1

KRAS G12D = KRAS G12D (Homo sapiens (Human), UniProt P01116+P62937, G12D); assay: Ras-Raf (BRAF RBD) disruption / FRET / MOA assay, KRAS G12D; assay type: biochemical; conditions: Ras-Raf disruption/FRET/MOA assay; class symbols; read-out: KRAS G12D FRET data IC50
KRAS G12D, sequence (P01116-2 other isoform, or with tags, fused parts or gaps G12D): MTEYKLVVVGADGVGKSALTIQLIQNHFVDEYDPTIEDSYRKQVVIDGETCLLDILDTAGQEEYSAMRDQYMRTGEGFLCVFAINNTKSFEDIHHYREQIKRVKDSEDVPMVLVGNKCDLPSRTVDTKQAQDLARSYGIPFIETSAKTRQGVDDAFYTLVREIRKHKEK
KRAS G12D, sequence (P62937 whole entry): as the sequence (P62937 whole entry) above
Procedure, shortened: as §1

KRAS G12V = KRAS G12V (Homo sapiens (Human), UniProt P01116+P62937, G12V); assay: Ras-Raf (BRAF RBD) disruption / FRET / MOA assay, KRAS G12V; assay type: biochemical; conditions: read-out: IC50* KRAS G12V FRET data
KRAS G12V, sequence (P01116-2 other isoform, or with tags, fused parts or gaps G12V): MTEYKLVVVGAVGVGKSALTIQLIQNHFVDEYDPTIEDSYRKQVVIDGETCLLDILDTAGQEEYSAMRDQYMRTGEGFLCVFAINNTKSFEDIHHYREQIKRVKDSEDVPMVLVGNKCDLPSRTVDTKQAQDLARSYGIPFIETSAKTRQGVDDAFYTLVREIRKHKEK
KRAS G12V, sequence (P62937 whole entry): as the sequence (P62937 whole entry) above
Procedure, shortened: as §1

KRAS WT = KRAS WT (Homo sapiens (Human), UniProt P01116+P62937); assay: Ras-Raf (BRAF RBD) disruption / FRET / MOA assay, KRAS WT; assay type: biochemical; conditions: read-out: IC50* KRAS WT FRET data
KRAS WT, sequence (P01116-2 other isoform, or with tags, fused parts or gaps): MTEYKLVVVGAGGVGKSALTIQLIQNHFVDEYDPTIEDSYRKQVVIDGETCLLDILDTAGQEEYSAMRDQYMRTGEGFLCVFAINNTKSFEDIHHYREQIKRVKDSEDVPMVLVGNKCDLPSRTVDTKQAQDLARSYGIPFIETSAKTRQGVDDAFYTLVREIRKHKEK
KRAS WT, sequence (P62937 whole entry): as the sequence (P62937 whole entry) above
Procedure, shortened: as §1

KRAS G13D = KRAS G13D (Homo sapiens (Human), UniProt P01116+P62937, G13D); assay: Ras-Raf (BRAF RBD) disruption / FRET / MOA assay, KRAS G13D; assay type: biochemical; conditions: read-out: IC50* KRAS G13D FRET data
KRAS G13D, sequence (P01116-2 other isoform, or with tags, fused parts or gaps G13D): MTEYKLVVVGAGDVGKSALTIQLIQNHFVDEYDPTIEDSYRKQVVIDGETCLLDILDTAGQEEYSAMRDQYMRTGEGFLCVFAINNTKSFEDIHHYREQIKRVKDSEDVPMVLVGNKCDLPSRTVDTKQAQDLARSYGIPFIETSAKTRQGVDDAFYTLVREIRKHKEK
KRAS G13D, sequence (P62937 whole entry): as the sequence (P62937 whole entry) above
Procedure, shortened: as §1

NRAS G12C = NRAS G12C (Homo sapiens (Human), UniProt P01111+P62937, G12C); assay: Ras-Raf (BRAF RBD) disruption / FRET / MOA assay, NRAS G12C; assay type: biochemical; conditions: read-out: IC50* NRAS G12C FRET data
NRAS G12C, sequence (P01111 whole entry G12C): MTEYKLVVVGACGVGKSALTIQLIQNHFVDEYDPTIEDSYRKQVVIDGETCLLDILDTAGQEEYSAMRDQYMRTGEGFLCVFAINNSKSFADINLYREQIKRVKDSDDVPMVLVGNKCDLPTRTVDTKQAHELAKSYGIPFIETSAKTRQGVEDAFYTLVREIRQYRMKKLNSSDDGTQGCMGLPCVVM
NRAS G12C, sequence (P62937 whole entry): as the sequence (P62937 whole entry) above
Procedure, shortened: as §1

Compound	EC50 [1] [nM]	IC50 (NCI-H358 (K-Ras G12C)) [nM]	IC50 (K-Ras G12C)	IC50 (K-Ras G13C)	IC50 (KRAS G12S)	IC50 (KRAS G12D) [nM]	IC50 (KRAS G12V)	IC50 (KRAS WT)	IC50 (KRAS G13D) [nM]	IC50 (NRAS G12C)
C=CC(=O)N1CC[C@H](C(=O)N(C)[C@H](C(=O)N[C@H]2Cc3cc(O)cc(c3)-c3ccc4c(c3)c(c(-c3cnccc3[C@H](C)OC)n4CC)CC(C)(C)COC(=O)[C@@H]3CCCN(N3)C2=O)C(C)C)C1 [Example A112]	< 5000	10 to 100	100 to 1000 nM	1000 to 10000 nM	1000 to 10000 nM	> 10000	1000 to 10000 nM	1000 to 10000 nM	1000 to 10000	100 to 1000 nM
CCn1c(-c2ccccc2CN(C)C)c2c3cc(ccc31)-c1cc(O)cc(c1)C[C@H](NC(=O)[C@H](C(C)C)N(C)C(=O)c1ncc(NC(=O)/C=C/CN(C)C)n1C)C(=O)N1CCC[C@H](N1)C(=O)OCC(C)(C)C2 [Example A116]	< 5000	100 to 1000	< 10 nM	10 to 100 nM	> 10000 nM	1000 to 10000	> 10000 nM	1000 to 10000 nM	1000 to 10000	< 10 nM
C=CC(=O)N(C)CCC(=O)N(C)[C@H](C(=O)N[C@H]1Cc2cc(O)cc(c2)-c2ccc3c(c2)c(c(-c2cccnc2COC)n3CC)CC(C)(C)COC(=O)[C@@H]2CCCN(N2)C1=O)C(C)C [Example A117]	< 5000	100 to 1000	100 to 1000 nM	100 to 1000 nM	1000 to 10000 nM	> 10000	1000 to 10000 nM	1000 to 10000 nM	1000 to 10000	100 to 1000 nM
C=CC(=O)N1CC[C@H](C(=O)N(C)[C@H](C(=O)N[C@H]2Cc3csc(n3)-c3ccc4c(c3)c(c(-c3cccnc3COC)n4CC)CC(C)(C)COC(=O)[C@@H]3CCCN(N3)C2=O)C(C)C)C1 [Example A118, (2S)-N-[(7S,13S)-21-ethyl-20-[2-(methoxymethyl)pyridin-3-yl]-17,17-dimethyl-8,14-dioxo-15-oxa-3-thia-9,21,27,28-tetraazapentacyclo[17.5.2.1^2,^5.1^9,^13.0^22,^26]octacosa-1(25),2(28),4,19,22(26),23-hexaen-7-yl]-3-methyl-2-{N-methyl-1-[(3S)-1-(prop-2-enoyl)pyrrolidin-3-yl]formamido}butanamide]	< 5000	100 to 1000	100 to 1000 nM	> 10000 nM	> 10000 nM	> 10000	> 10000 nM	> 10000 nM	> 10000	100 to 1000 nM
CCn1c(-c2cnccc2[C@H](C)OC)c2c3cc(ccc31)-c1cc(O)cc(c1)C[C@H](NC(=O)[C@H](C(C)C)N(C)C(=O)[C@H]1CCN(C(=O)C#CCN(C)C)C1)C(=O)N1CCC[C@H](N1)C(=O)OCC(C)(C)C2 [Example A123]	< 5000	< 10	10 to 100 nM	10 to 100 nM	100 to 1000 nM	100 to 1000	100 to 1000 nM	100 to 1000 nM	100 to 1000	< 10 nM
C=CC(=O)N1CCN(C(=O)N(C)[C@H](C(=O)N[C@H]2Cc3cc(O)cc(c3)-c3ccc4c(c3)c(c(-c3ccccc3CCOC)n4CC)CC(C)(C)COC(=O)[C@@H]3CCCN(N3)C2=O)C(C)C)C[C@@H]1COC [Example A125]	< 5000	> 1000	100 to 1000 nM	100 to 1000 nM	1000 to 10000 nM	> 10000	1000 to 10000 nM	1000 to 10000 nM	1000 to 10000	1000 to 10000 nM
CCn1c(-c2ccccc2CN(C)C)c2c3cc(ccc31)-c1cc(O)cc(c1)C[C@H](NC(=O)[C@@H](C(C)C)N(C)C(=O)c1ncc(NC(=O)/C=C/CN(C)C)n1C)C(=O)N1CCC[C@H](N1)C(=O)OCC(C)(C)C2 [Example A126]	< 5000	> 1000	10 to 100 nM	100 to 1000 nM	> 10000 nM	> 10000	> 10000 nM	> 10000 nM	> 10000	10 to 100 nM
C=CC(=O)N1CC[C@H](C(=O)N(C)[C@H](C(=O)N[C@H]2Cc3cc(O)cc(c3)-c3ccc4c(c3)c(c(-c3ccc(COC)cc3CN(C)C)n4CC)CC(C)(C)COC(=O)[C@@H]3CCCN(N3)C2=O)C(C)C)C1 [Example A127]	< 5000	100 to 1000	10 to 100 nM	100 to 1000 nM	100 to 1000 nM	1000 to 10000	100 to 1000 nM	1000 to 10000 nM	1000 to 10000	10 to 100 nM
C=CC(=O)N1CC[C@H](C(=O)N(C)[C@H](C(=O)N[C@H]2Cc3cc(O)cc(c3)-c3ccc4c(c3)c(c(-c3ccncc3CN(C)C)n4CC)CC(C)(C)COC(=O)[C@@H]3CCCN(N3)C2=O)C(C)C)C1 [Example A128]	< 5000	< 10	10 to 100 nM	100 to 1000 nM	100 to 1000 nM	1000 to 10000	100 to 1000 nM	100 to 1000 nM	100 to 1000	10 to 100 nM
CCn1c(-c2cccnc2COC)c2c3cc(ccc31)-c1cc(O)cc(c1)C[C@H](NC(=O)[C@H](C(C)C)N(C)C(=O)[C@H]1CCN(C(=O)C#CCCN3CCOCC3)C1)C(=O)N1CCC[C@H](N1)C(=O)OCC(C)(C)C2 [Example A129]	< 5000	10 to 100	< 10 nM	100 to 1000 nM	100 to 1000 nM	1000 to 10000	100 to 1000 nM	1000 to 10000 nM	1000 to 10000	< 10 nM
CCn1c(-c2cnccc2[C@H](C)OC)c2c3cc(ccc31)-c1cccc(c1)C[C@H](NC(=O)[C@H](C1CCCC1)N(C)C(=O)[C@H]1CCN(C(=O)C#CCN(C)C)C1)C(=O)N1CCC[C@H](N1)C(=O)OCC(C)(C)C2 [Example A133]	< 5000	10 to 100	10 nM to 100 nM and < 10 nM (2×)	10 nM to 100 nM (2×) and 1 µM to 10 µM	1 µM to 10 µM (2×) and > 10 µM	1000 to 10000	1 µM to 10 µM (2×) and > 10 µM	1 µM to 10 µM (2×) and > 10 µM	1000 to 10000	10 nM to 100 nM and < 10 nM (2×)
CCn1c(-c2cccnc2COC)c2c3cc(ccc31)-c1cc(O)cc(c1)C[C@H](NC(=O)[C@H](C(C)C)N(C)C(=O)[C@H]1CCN(C(=O)/C=C/CN3CCOCC3)C1)C(=O)N1CCC[C@H](N1)C(=O)OCC(C)(C)C2 [Example A134]	< 5000	100 to 1000	10 to 100 nM	1000 to 10000 nM	1000 to 10000 nM	1000 to 10000	1000 to 10000 nM	1000 to 10000 nM	1000 to 10000	10 to 100 nM
CCn1c(-c2cnccc2COC)c2c3cc(ccc31)-c1cncc(c1)C[C@H](NC(=O)[C@H](C(C)C)N(C)C(=O)[C@H]1CCN(C(=O)C#CCN(C)C)C1)C(=O)N1CCC[C@H](N1)C(=O)OCC(C)(C)C2 [Example A139]	< 5000	100 to 1000	10 to 100 nM	1000 to 10000 nM	> 10000 nM	1000 to 10000	> 10000 nM	> 10000 nM	> 10000	100 to 1000 nM
CCn1c(-c2cnccc2[C@H](C)OC)c2c3cc(ccc31)-c1cccc(c1)C[C@H](NC(=O)[C@H](C(C)C)N(C)C(=O)[C@H]1CCN(C(=O)C#CCN(C)C)C1)C(=O)N1CCC[C@H](N1)C(=O)OCC(C)(C)C2 [Example A140]	< 5000	< 10	< 10 nM	10 to 100 nM	1000 to 10000 nM	1000 to 10000	1000 to 10000 nM	1000 to 10000 nM	1000 to 10000	< 10 nM
CCn1c(-c2cnccc2C(C)C)c2c3cc(ccc31)-c1cc(O)cc(c1)C[C@H](NC(=O)[C@H](C(C)C)N(C)C(=O)[C@H]1CCN(C(=O)C#CCN(C)C)C1)C(=O)N1CCC[C@H](N1)C(=O)OCC(C)(C)C2 [Example A141]	< 5000	< 10	< 10 nM	10 to 100 nM	100 to 1000 nM	1000 to 10000	100 to 1000 nM	100 to 1000 nM	100 to 1000	< 10 nM
